Patent US7713985B2, “Adenosine Aa2 receptor antagonists” (Schering Corporation, priority 2006, dated 2010)

Each molecule was assayed against T1, Human A2a Adenosine Receptor (Homo sapiens, UniProt P29274) (assay: Human adenosine A2a receptor competition binding assay). Settings: [3H]-SCH 58261 displacement, human A2a membranes.
T1 construct: purchased Receptor Biology, Inc., Beltsville, Md; RB-HA2a
Procedure: Human Adenosine A2a and A1 Receptor Competition Binding Assay Protocol
A2a: Human A2a Adenosine Receptor membranes, Catalog #RB-HA2a, Receptor Biology, Inc., Beltsville, Md. Dilute to 17 μg/100 μl in membrane dilution buffer (see below).
Membrane dilution buffer: Dulbecco's Phosphate Buffered Saline (Gibco/BRL)+10 mM MgCl2.
Compound Dilution Buffer: Dulbecco's Phosphate Buffered Saline (Gibco/BRL)+10 mM MgCl2 supplemented with 1.6 mg/ml methyl cellulose and 16% DMSO. Prepared fresh daily.
A2a: [3H]-SCH 58261, custom synthesis, AmershamPharmacia Biotech, Piscataway, N.J. Stock is prepared at 1 nM in membrane dilution buffer. Final assay concentration is 0.5 nM.
A2a: To determine non-specific binding, add 100 nM CGS 15923 (RBI, Natick, Mass.). Working stock is prepared at 400 nM in compound dilution buffer.
Prepare 1 mM stock solutions of compounds in 100% DMSO. Dilute in compound dilution buffer. Test at 10 concentrations ranging from 3 μM to 30 pM. Prepare working solutions at 4× final concentration in compound dilution buffer.
Perform assays in deep well 96 well plates. Total assay volume is 200 μl. Add 50 μl compound dilution buffer (total ligand binding) or 50 μl CGS 15923 working solution (A2a non-specific binding) or 50 μl NECA working solution (A1 non-specific binding) or 50 μl of drug working solution. Add 50 μl ligand stock ([3H]-SCH 58261 for A2a, [3H]-DPCPX for A1). Add 100 μl of diluted membranes containing the appropriate receptor. Mix. Incubate at room temperature for 90 minutes. Harvest using a Brandel cell harvester onto Packard GF/B filter plates. Add 45 μl Microscint 20 (Packard), and count using the Packard TopCount Microscintillation Counter. Determine IC50 values by fitting the displacement curves using an iterative curve fitting program (Excel). Determine Ki values using the Cheng-Prusoff equation.

T1 sequence (P29274 whole entry): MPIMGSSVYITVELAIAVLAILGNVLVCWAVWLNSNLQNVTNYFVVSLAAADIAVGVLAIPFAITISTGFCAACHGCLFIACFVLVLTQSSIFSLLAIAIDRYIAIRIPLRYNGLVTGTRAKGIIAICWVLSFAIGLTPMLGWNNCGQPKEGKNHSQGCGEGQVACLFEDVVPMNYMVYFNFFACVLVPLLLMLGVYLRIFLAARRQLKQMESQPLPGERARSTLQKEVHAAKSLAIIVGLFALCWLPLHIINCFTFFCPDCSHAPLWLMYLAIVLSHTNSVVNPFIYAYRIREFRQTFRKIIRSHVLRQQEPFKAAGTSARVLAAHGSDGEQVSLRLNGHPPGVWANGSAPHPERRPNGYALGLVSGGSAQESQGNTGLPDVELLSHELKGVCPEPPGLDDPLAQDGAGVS

| SMILES | Ki [nM] |
| --- | --- |
| Nc1nc2ccccc2c2nn(Cc3cccc(F)c3)c(=O)n12 [Example 12] | 12.2 |
| Nc1nc2ccccc2c2nn(Cc3cccc(Cl)c3)c(=O)n12 [Example 13] | 4.7 |
| Nc1nc2ccccc2c2nn(Cc3c(Cl)cccc3Cl)c(=O)n12 [Example 8] | 12 |
